Source: ChEMBL document CHEMBL1764994, “QSAR-based permeability model for drug-like compounds” (Bioorg Med Chem, 2011)

test system: Caco-2; conditions: human, Caco-2, 2 h
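Throughout, for permeability: apparent permeability through Caco-2 cell membranes, with the permeated amount quantified by LC-MS/MS.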

Point of comparison: `CC(=O)[C@H]1CC[C@H]2[C@@H]3CCC4=CC(=O)CC[C@]4(C)[C@H]3CC[C@]12C` [PROGESTERONE], logPapp -4.55. Against it:
- CCCc1nc2c(C)cc(-c3nc4ccccc4n3C)cc2n1Cc1ccc(-c2ccccc2C(=O)O)cc1 — lower, -4.82
- Cc1ccc(/C(=C\CN2CCCC2)c2cccc(/C=C/C(=O)O)n2)cc1 [ACRIVASTINE] — lower, -5.72
- NC(=O)N1c2ccccc2C=Cc2ccccc21 [CARBAMAZEPINE] — lower, -5.3
- CN/C(=N/CCSCc1nc[nH]c1C)NC#N [CIMETIDINE] — lower, -5.88
- Clc1cccc(Cl)c1N=C1NCCN1 [CLONIDINE] — within 0.2 log units, -4.66
- NCCc1ccc(O)c(O)c1 [DOPAMINE] — lower, -5.03
- CNC[C@H](O)c1ccc(O)c(O)c1 [EPINEPHRINE] — lower, -6.02
- CC#Cc1cn([C@@H]2O[C@H](CO)[C@@H](O)[C@@H]2O)c(=O)[nH]c1=O [NETIVUDINE] — lower, -6.17
- CN1CCC[C@H]1c1cccnc1 [NICOTINE] — within 0.2 log units, -4.58
- C=CCOc1ccccc1OCC(O)CNC(C)C (centres undefined) [OXPRENOLOL] — higher, -4.21
- CC1(C)S[C@@H]2[C@H](NC(=O)Cc3ccccc3)C(=O)N2[C@H]1C(=O)O [PENICILLIN G] — lower, -6.11
- c1ccc(C2(N3CCCCC3)CCCCC2)cc1 [PHENCYCLIDINE] — within 0.2 log units, -4.61
- CC(C)NCC(O)COc1cccc2[nH]ccc12 (centres undefined) [PINDOLOL] — within 0.2 log units, -4.41
- CC(C(=O)O)c1ccc2c(c1)Cc1cccnc1O2 (centres undefined) [PRANOPROFEN] — within 0.2 log units, -4.39
- CNC(=C[N+](=O)[O-])NCCSCc1ccc(CN(C)C)o1 [RANITIDINE] — lower, -6.2
- O=C(O)c1cc(/N=N/c2ccc(S(=O)(=O)Nc3ccccn3)cc2)ccc1O [SULFASALAZINE] — lower, -6.61
- C[C@H](CCC(=O)NCCS(=O)(=O)O)[C@H]1CC[C@H]2[C@@H]3[C@H](O)C[C@@H]4C[C@H](O)CC[C@]4(C)[C@H]3C[C@H](O)[C@]12C [TAUROCHOLIC ACID] — within 0.2 log units, -4.46
- Cn1c(=O)c2[nH]cnc2n(C)c1=O.O [THEOPHYLLINE] — within 0.2 log units, -4.4
- CC(C(=O)O)c1ccc(C(=O)c2ccccc2)s1 (centres undefined) [TIAPROFENIC ACID] — within 0.2 log units, -4.41
- CC(C)(C)NC[C@H](O)COc1nsnc1N1CCOCC1 [TIMOLOL] — within 0.2 log units, -4.43
- CNC(=NCCSCc1csc(N=C(N)N)n1)NC#N [TIOTIDINE] — lower, -5.66
- N[C@@H]1[C@H]2CN(c3nc4c(cc3F)c(=O)c(C(=O)O)cn4-c3ccc(F)cc3F)C[C@@H]12 [TROVAFLOXACIN] — within 0.2 log units, -4.52

In the case of `CC1(C)S[C@@H]2[C@H](NC(=O)[C@H](N)c3ccc(O)cc3)C(=O)N2[C@H]1C(=O)O` [AMOXICILLIN], the permeability is reported as “permeable”.
For `Cc1cc(=O)n(-c2ccccc2)n1C` [ANTIPYRINE], the permeability was “permeable”.
With `NC(=O)N1c2ccccc2C=Cc2ccccc21` [CARBAMAZEPINE] the permeability was “permeable”.
`CC(C)n1c(/C=C/C(O)CC(O)CC(=O)O)c(-c2ccc(F)cc2)c2ccccc21` (centres undefined) [FLUVASTATIN] was tested, and the permeability was “permeable”.
For `CC(C(=O)O)c1cccc(C(=O)c2ccccc2)c1` (centres undefined) [KETOPROFEN], the permeability was “permeable”.
`OC[C@@H](O)[C@@H](O)[C@H](O)[C@H](O)CO` [MANNITOL] was tested, and the permeability was “permeable”.
For `C[C@](N)(Cc1ccc(O)c(O)c1)C(=O)O` [METHYLDOPA], the permeability was “permeable”.
For `COCCc1ccc(OCC(O)CNC(C)C)cc1` (centres undefined) [METOPROLOL], the permeability was “permeable”.
With `CNC(=C[N+](=O)[O-])NCCSCc1ccc(CN(C)C)o1` [RANITIDINE] the permeability was “permeable”.
For `Cn1c(=O)c2[nH]cnc2n(C)c1=O.O` [THEOPHYLLINE], the permeability was “permeable”.

test system: Caco-2; conditions: human, Caco-2, 2 h; remark: another data set of the same source

Point of comparison: `CC(C)[C@H](N)C(=O)OCCOCn1cnc2c(=O)[nH]c(N)nc21` [VALACYCLOVIR], logPapp -6.52. Against it:
- CCOC(=O)[C@H](CCc1ccccc1)N[C@@H](C)C(=O)N1CCC[C@H]1C(=O)O — higher, -6.1
- CC[C@H](C)C(=O)O[C@H]1C[C@H](O)C=C2C=C[C@H](C)[C@H](CC[C@@H](O)C[C@@H](O)CC(=O)O)[C@H]21 [PRAVASTATIN] — within 0.2 log units, -6.56

test system: Caco-2; conditions: human

Point of comparison: `CC(C)[C@H](N)C(=O)OCCOCn1cnc2c(=O)[nH]c(N)nc21` [VALACYCLOVIR], logPapp -6.3. Against it:
- CCOC(=O)[C@H](CCc1ccccc1)N[C@@H](C)C(=O)N1CCC[C@H]1C(=O)O — higher, -5.7
- CC[C@H](C)C(=O)O[C@H]1C[C@H](O)C=C2C=C[C@H](C)[C@H](CC[C@@H](O)C[C@@H](O)CC(=O)O)[C@H]21 [PRAVASTATIN] — higher, -5.64
